From patent US20240158446A1, “CYCLIC COMPOUND HAVING SELECTIVE INHIBITORY ACTION ON KRAS OVER HRAS AND NRAS” (CHUGAI SEIYAKU KABUSHIKI KAISHA, priority 2021, published 2024)
Where two headings read alike, the source gives them in different places. Where a SMILES comes first, the peptide text is derived from it. Bridges are numbered along the chain shown (N, C = ends). [ ]: non-standard residue; d: D form. The star is where a group is joined. hPhe(3-Cl-4-CF3) = N[C@@H](CCc1ccc(C(F)(F)F)c(Cl)c1)C(=O)O; NPrPhe(4-CF3) = CCCN[C@@H](Cc1ccc(C(F)(F)F)cc1)C(=O)O; NPrPhe(4-Me) = CCCN[C@@H](Cc1ccc(C)cc1)C(=O)O; Abu(4,4,4-F3) = N[C@@H](CC(F)(F)F)C(=O)O; NMeGly(cPent) = CN[C@H](C(=O)O)C1CCCC1; Pro(4,4-F2) = O=C(O)[C@@H]1CC(F)(F)CN1; NMeD = CN[C@@H](CC(=O)O)C(=O)O; NMeL = CN[C@@H](CC(C)C)C(=O)O; Morpholide = C1CN(*)CCO1; Ac5c = NC1(C(=O)O)CCCC1; Aze = O=C(O)[C@@H]1CCN1; Ac4c = NC1(C(=O)O)CCC1; Sar = CNCC(=O)O

What was measured:
[1] = biological target: GDP-bound KRAS wild-type protein (Homo sapiens, UniProt P01116); test: Binding to KRAS by surface plasmon resonance (SPR), Single Cycle Kinetics; conditions: GDP-bound KRAS wild-type protein, read-out: KRAS KD
[2] = system: human lung cancer strain NCI-H441;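 also: cell proliferation inhibition after four days measured by CellTiter-Glo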
[3] = biological target: GDP-bound NRAS wild-type protein (Homo sapiens, UniProt P01111); test: Binding to NRAS by surface plasmon resonance (SPR), Single Cycle Kinetics; conditions: SPR, GDP-bound NRAS wild-type protein vs GDP-bound KRAS wild-type protein
[4] = biological target: GDP-bound HRAS wild-type protein (Homo sapiens, UniProt P01112); test: Binding to HRAS by surface plasmon resonance (SPR), Single Cycle Kinetics; conditions: SPR, GDP-bound HRAS wild-type protein vs GDP-bound KRAS wild-type protein
Sequence of GDP-bound HRAS wild-type protein (P01112 whole entry): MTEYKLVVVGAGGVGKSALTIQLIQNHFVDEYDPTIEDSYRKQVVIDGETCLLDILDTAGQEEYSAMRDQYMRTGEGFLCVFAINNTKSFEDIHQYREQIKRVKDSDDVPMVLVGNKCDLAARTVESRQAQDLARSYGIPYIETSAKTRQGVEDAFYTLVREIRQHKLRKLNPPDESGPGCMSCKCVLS

Sequence of GDP-bound NRAS wild-type protein (P01111 whole entry): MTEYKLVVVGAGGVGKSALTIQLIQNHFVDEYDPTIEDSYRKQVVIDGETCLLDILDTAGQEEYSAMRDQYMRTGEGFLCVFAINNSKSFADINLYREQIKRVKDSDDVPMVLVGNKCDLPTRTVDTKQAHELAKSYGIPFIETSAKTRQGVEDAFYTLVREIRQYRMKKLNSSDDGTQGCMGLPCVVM
Sequence of GDP-bound KRAS wild-type protein (P01116 whole entry): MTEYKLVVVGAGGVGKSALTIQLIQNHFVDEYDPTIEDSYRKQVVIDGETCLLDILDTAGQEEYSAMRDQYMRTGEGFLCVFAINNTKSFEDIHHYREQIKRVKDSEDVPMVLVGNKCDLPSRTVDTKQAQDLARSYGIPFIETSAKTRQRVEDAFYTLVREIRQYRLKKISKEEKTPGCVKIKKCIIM

Row | Compound | Kd ([1]; SPR Single Cycle Kinetics, 1:1 binding model) [nM] | IC50 [2] [nM] | Kd ([1]; SPR, Single Cycle Kinetics) [nM] | NRAS/KRAS (ratio of KD value for NRAS to KD value for KRAS) [3] | HRAS/KRAS (ratio of KD value for HRAS to KD value for KRAS) [4]
1 | CCCN1C(=O)[C@@H]2CCN2C(=O)[C@H](C)NC(=O)[C@H]([C@@H](C)CC)NC(=O)[C@H](CC(C)C)N(C)C(=O)C[C@@H](C(=O)N2CCOCC2)N(C)C(=O)[C@H](C2CCCC2)N(C)C(=O)C2(CCCC2)NC(=O)[C@@H]2CCCN2C(=O)[C@H](CCc2ccc(C(F)(F)F)c(Cl)c2)NC(=O)CN(C)C(=O)[C@@H]1Cc1ccc(C)cc1 [PP0071] ([NMeL]IA[Aze][NPrPhe(4-Me)][Sar][hPhe(3-Cl-4-CF3)]P[Ac5c][NMeGly(cPent)][NMeD]-Morpholide; lactam N-11) | 0.15 | 3.8 |  |  | 
2 | CCCN1C(=O)CN(C)C(=O)[C@@H]2CCN2C(=O)[C@H](CC(F)(F)F)NC(=O)[C@H](CC(C)C)N(C)C(=O)C[C@@H](C(=O)N2CCOCC2)N(C)C(=O)[C@H](C2CCCC2)N(C)C(=O)C2(CCCC2)NC(=O)[C@@H]2CCCN2C(=O)[C@H](CCc2ccc(C(F)(F)F)c(Cl)c2)NC(=O)CN(C)C(=O)[C@@H]1Cc1ccc(C(F)(F)F)cc1 [PP0304] ([NMeL][Abu(4,4,4-F3)][Aze][Sar][NPrPhe(4-CF3)][Sar][hPhe(3-Cl-4-CF3)]P[Ac5c][NMeGly(cPent)][NMeD]-Morpholide; lactam N-11) |  | 112 |  | B (a compound having 3 or more and less than 10 is denoted as B) | B (a compound having 3 or more and less than 10 is denoted as B)
3 | CCCN1C(=O)CN(C)C(=O)[C@@H]2CCN2C(=O)[C@H]([C@@H](C)CC)NC(=O)[C@H](CC(C)C)N(C)C(=O)C[C@@H](C(=O)N(C)C)NC(=O)[C@H](C2CCCC2)N(C)C(=O)C2(CCC2)NC(=O)[C@@H]2CC(F)(F)CN2C(=O)[C@H](CCc2ccc(C(F)(F)F)c(Cl)c2)NC(=O)CN(C)C(=O)[C@@H]1Cc1ccc(C(F)(F)F)cc1 [PP0376] ([NMeL]I[Aze][Sar][NPrPhe(4-CF3)][Sar][hPhe(3-Cl-4-CF3)][Pro(4,4-F2)][Ac4c][NMeGly(cPent)]D-NMe2; lactam N-11) |  | 114 |  | B (a compound having 3 or more and less than 10 is denoted as B) | B (a compound having 3 or more and less than 10 is denoted as B)

Second part, led by results:

Row | Kd ([1]; SPR Single Cycle Kinetics, 1:1 binding model) [nM] | IC50 [2] [nM] | Kd ([1]; SPR, Single Cycle Kinetics) [nM] | Compound | NRAS/KRAS (ratio of KD value for NRAS to KD value for KRAS) [3] | HRAS/KRAS (ratio of KD value for HRAS to KD value for KRAS) [4]
4 |  | 24.1 | 0.4 | CCCCCC[C@H]1C(=O)N[C@@H]([C@@H](C)CC)C(=O)N(C)CC(=O)N(C)[C@H]2C/C=C\CCN(C2=O)[C@@H](Cc2ccc(C(F)(F)F)cc2)C(=O)N(C)CC(=O)N[C@@H](CCc2cc(F)c(C(F)(F)F)c(F)c2)C(=O)N2C[C@H](OCC)C[C@H]2C(=O)NC2(CCC2)C(=O)N(C)[C@@H](C(CC)CC)C(=O)N(C)[C@H](C(=O)N(C)C)CC(=O)N1C [PP1202] |  | 
5 |  | 26.3 |  | CCO[C@@H]1C[C@H]2C(=O)NC3(CCC3)C(=O)N(C)[C@@H](C3CCCC3)C(=O)N(C)[C@H](C(=O)N3CCOCC3)CC(=O)N(C)[C@@H](Cc3ccccc3)C(=O)N[C@@H]([C@@H](C)CC)C(=O)N(C)CC(=O)N(C)[C@H]3CCCCCN(C3=O)[C@@H](Cc3ccc(F)cc3)C(=O)N(C)CC(=O)N[C@@H](CCc3cc(F)c(C(F)(F)F)c(F)c3)C(=O)N2C1 [PP1181] | B (a compound having 3 or more and less than 10 is denoted as B) | B (a compound having 3 or more and less than 10 is denoted as B)
6 |  | 314 |  | CC[C@H](C)[C@@H]1NC(=O)[C@H](CC(C)C)N(C)C(=O)C[C@@H](C(=O)N2CCOCC2)N(C)C(=O)[C@H](C2CCCC2)N(C)C(=O)C2(CCC2)NC(=O)[C@@H]2[C@@H](OCC3CCCC3)CCN2C(=O)[C@H](CCc2cc(F)c(C(F)(F)F)c(F)c2)NC(=O)CN(C)C(=O)[C@H](Cc2ccc(C(F)(F)F)cc2)N2CCCCC[C@@H](C2=O)N(C)C(=O)CN(C)C1=O [PP1011] | A (a compound having 10 or more and less than 20 is denoted as A) | B (a compound having 3 or more and less than 10 is denoted as B)
